The source of these data is PubChem BioAssay AID328 (DTP/NCI, 2004).

Where “and” joins values, the source holds several entries; their conditions need not be identical. Equal values may be shown once. Inconclusive results and toxic doses are left out.

The assay has as its system BDF1 mice, P388 leukemia ip, median survival T/C. Kind of assay: NCI In Vivo Anticancer Drug Screen. Data for tumor model P388 Leukemia (intraperitoneal) in B6D2F1 (BDF1) mice. The note with it: endpoint: median survival time, higher = longer survival. The method, boiled down: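 Transplantable tumour in mice; compound vs vehicle dosing; survival scored; ratio of treated to control reported.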

[1] abbreviates: dose: 50.0 mg/kg/injection, schedule: Q01DX009 (ip), vehicle: saline with Tween-80.
Where [2] appears, read: dose: 100.0 mg/kg/injection, schedule: Q01DX009 (ip), vehicle: saline with Tween-80.
The mark [3] stands for this setting: dose: 25.0 mg/kg/injection, schedule: Q04DX003 (ip), vehicle: saline with Tween-80.
Where [4] appears, read: dose: 50.0 mg/kg/injection, schedule: Q04DX003 (ip), vehicle: saline with Tween-80.
The mark [5] stands for this setting: dose: 100.0 mg/kg/injection, schedule: Q04DX003 (ip), vehicle: saline.
[6] abbreviates: dose: 25.0 mg/kg/injection, schedule: Q01DX009 (ip), vehicle: Klucel (hydroxypropylcellulose) (HPC).
[7] abbreviates: dose: 50.0 mg/kg/injection, schedule: Q01DX009 (ip), vehicle: Klucel (hydroxypropylcellulose) (HPC).
Setting [8] is: dose: 100.0 mg/kg/injection, schedule: Q01DX009 (ip), vehicle: Klucel (hydroxypropylcellulose) (HPC).
The mark [9] stands for this setting: dose: 100.0 mg/kg/injection, schedule: Q04DX003 (ip), vehicle: saline with Tween-80.
The mark [10] stands for this setting: dose: 200.0 mg/kg/injection, schedule: Q04DX003 (ip), vehicle: saline with Tween-80.

For `COc1ccc2c(c1)CC1NCCc3cc4c(c-2c31)OCO4` (stereo not drawn), the T/C was 114 % of control under setting [1] and 97 % of control under setting [2].
`CN(Cc1cnc2nc(N)nc(N)c2n1)c1ccc(C(=O)N[C@@H](CCC(=O)O)C(=O)O)cc1`: the T/C by setting is: (dose: 0.37 mg/kg/injection, schedule: Q01DX009 (ip), vehicle: sodium bicarbonate) 172 % of control; (dose: 0.38 mg/kg/injection, schedule: Q01DX009 (ip), vehicle: saline) 150 % of control and 155 % of control; (dose: 0.5 mg/kg/injection, schedule: Q01DX005 (ip), vehicle: saline with Tween-80) 113 % of control; (dose: 0.5 mg/kg/injection, schedule: Q01DX005 (ip), vehicle: saline) 184 % of control; (dose: 0.5 mg/kg/injection, schedule: Q01DX009 (ip), vehicle: saline with Tween-80) 163 % of control; (dose: 0.5 mg/kg/injection, schedule: Q01DX009 (ip), vehicle: sodium bicarbonate) 176 % of control. The T/C (dose: 0.5 mg/kg/injection, schedule: Q01DX010 (ip), vehicle: other) is 245 % of control; the T/C (dose: 0.75 mg/kg/injection, schedule: Q01DX009 (ip), vehicle: saline) is 190 % of control and 195 % of control; the T/C (dose: 0.75 mg/kg/injection, schedule: Q01DX009 (ip), vehicle: sodium bicarbonate) is 209 % of control; the T/C (dose: 0.9 mg/kg/injection, schedule: Q01DX009 (ip), vehicle: sodium bicarbonate) was 171 % of control and 190 % of control and 203 % of control; the T/C (dose: 1.0 mg/kg/injection, schedule: Q01DX005 (ip), vehicle: saline with Tween-80) was 104 % of control; the T/C (dose: 1.0 mg/kg/injection, schedule: Q01DX005 (ip), vehicle: saline) is 194 % of control. The T/C runs as follows: (dose: 1.0 mg/kg/injection, schedule: Q01DX009 (ip), vehicle: saline with Tween-80) 181 % of control; (dose: 1.0 mg/kg/injection, schedule: Q01DX009 (ip), vehicle: sodium bicarbonate) 236 % of control and 150 % of control and 181 % of control; (dose: 1.0 mg/kg/injection, schedule: Q01DX010 (ip), vehicle: other) 300 % of control; (dose: 1.3 mg/kg/injection, schedule: Q01DX009 (ip), vehicle: sodium bicarbonate) 228 % of control and 179 % of control and 205 % of control; (dose: 1.5 mg/kg/injection, schedule: Q01DX009 (ip), vehicle: saline) 229 % of control and 222 % of control; (dose: 2.0 mg/kg/injection, schedule: Q01DX009 (ip), vehicle: saline with Tween-80) 222 % of control. Further, the T/C reads like this: (dose: 2.25 mg/kg/injection, schedule: Q01DX009 (ip), vehicle: sodium bicarbonate) 231 % of control; (dose: 2.3 mg/kg/injection, schedule: Q01DX009 (ip), vehicle: sodium bicarbonate) 227 % of control and 239 % of control and 263 % of control; (dose: 3.0 mg/kg/injection, schedule: Q01DX009 (ip), vehicle: saline) 231 % of control and 236 % of control; (dose: 3.0 mg/kg/injection, schedule: Q01DX009 (ip), vehicle: sodium bicarbonate) 95 % of control and 100 % of control; (dose: 3.5 mg/kg/injection, schedule: Q01DX009 (ip), vehicle: sodium bicarbonate) 241 % of control and 244 % of control and 104 % of control; (dose: 8.64 mg/kg/injection, schedule: Q04DX003 (ip), vehicle: sodium bicarbonate) 182 % of control. Also, the T/C reads like this: (dose: 10.0 mg/kg/injection, schedule: Q04DX004 (ip), vehicle: sodium bicarbonate) 243 % of control; (dose: 14.4 mg/kg/injection, schedule: Q04DX003 (ip), vehicle: sodium bicarbonate) 199 % of control; (dose: 15.0 mg/kg/injection, schedule: Q04DX004 (ip), vehicle: sodium bicarbonate) 250 % of control; (dose: 20.0 mg/kg/injection, schedule: Q04DX003 (ip), vehicle: sodium bicarbonate) 221 % of control; (dose: 20.0 mg/kg/injection, schedule: Q04DX004 (ip), vehicle: sodium bicarbonate) 248 % of control; (dose: 24.0 mg/kg/injection, schedule: Q04DX003 (ip), vehicle: sodium bicarbonate) 202 % of control. Further, the T/C reads like this: (dose: 25.0 mg/kg/injection, schedule: Q04DX003 (ip), vehicle: sodium bicarbonate) 292 % of control; (dose: 25.0 mg/kg/injection, schedule: Q04DX004 (ip), vehicle: sodium bicarbonate) 248 % of control; (dose: 30.0 mg/kg/injection, schedule: Q04DX003 (ip), vehicle: sodium bicarbonate) 238 % of control; (dose: 40.0 mg/kg/injection, schedule: Q04DX003 (ip), vehicle: sodium bicarbonate) 237 % of control.
For `Clc1cccc(-c2nc3ccccc3c3ccccc23)c1`, the T/C under setting [2] is 105 % of control; the T/C (dose: 200.0 mg/kg/injection, schedule: Q01DX009 (ip), vehicle: saline with Tween-80) was 120 % of control; the T/C (dose: 400.0 mg/kg/injection, schedule: Q01DX009 (ip), vehicle: saline with Tween-80) was 95 % of control.
Regarding `CNC(=S)N1N=C(C)CC1=O`, the T/C reads like this: (dose: 37.5 mg/kg/injection, schedule: Q01DX009 (ip), vehicle: saline with Tween-80) 106 % of control; (dose: 75.0 mg/kg/injection, schedule: Q01DX009 (ip), vehicle: saline with Tween-80) 99 % of control.
For `O=C(O)c1ccc(C(=O)O)c(C(=O)O)c1.[NH-]C1CCCCC1[NH-].[Pt+2]`, the T/C reads like this: (dose: 30.0 mg/kg/injection, schedule: Q01DX001 (ip), vehicle: sodium bicarbonate) 164 % of control; (dose: 50.0 mg/kg/injection, schedule: Q01DX001 (ip), vehicle: sodium bicarbonate) 162 % of control.
As to `COc1ccc(CNCC(OC)OC)cc1O`, the T/C runs as follows: (dose: 100.0 mg/kg/injection, schedule: Q01DX001 (ip), vehicle: saline with Tween-80) 99 % of control; (dose: 200.0 mg/kg/injection, schedule: Q01DX001 (ip), vehicle: saline with Tween-80) 102 % of control.
Take `C[N+](C)(C)Cc1ccccc1`: the T/C is, setting by setting: under setting [3], 95 % of control; under setting [4], 112 % of control.
As for `c1c[nH]cn1`, the T/C is, setting by setting: (dose: 100.0 mg/kg/injection, schedule: Q01DX009 (ip), vehicle: saline) 90 % of control; under setting [5], 95 % of control; (dose: 200.0 mg/kg/injection, schedule: Q01DX009 (ip), vehicle: saline) 100 % of control; (dose: 200.0 mg/kg/injection, schedule: Q04DX003 (ip), vehicle: saline) 104 % of control; (dose: 400.0 mg/kg/injection, schedule: Q01DX009 (ip), vehicle: saline) 118 % of control; (dose: 400.0 mg/kg/injection, schedule: Q04DX003 (ip), vehicle: saline) 95 % of control.
In the case of `COc1ccccc1/C=N\NC(C)=O`, the T/C was 96 % of control under setting [6]; 86 % of control (dose: 25.0 mg/kg/injection, schedule: Q04DX003 (ip), vehicle: Klucel (hydroxypropylcellulose) (HPC)); 107 % of control under setting [7]; 92 % of control under setting [8]; 86 % of control (dose: 100.0 mg/kg/injection, schedule: Q04DX003 (ip), vehicle: Klucel (hydroxypropylcellulose) (HPC)).
On to `OCCC1CC1=C1CC1` (stereo not drawn), for which the T/C was 105 % of control under setting [6], 105 % of control under setting [7] and 110 % of control under setting [8].
`O=C1CCCN1.O=C1CCCN1.[Br][Co][Br]`: the T/C was 108 % of control (dose: 25.0 mg/kg/injection, schedule: Q01DX009 (ip), vehicle: saline); 109 % of control (dose: 44.0 mg/kg/injection, schedule: Q01DX009 (ip), vehicle: saline); 113 % of control (dose: 50.0 mg/kg/injection, schedule: Q01DX009 (ip), vehicle: saline); 105 % of control (dose: 50.0 mg/kg/injection, schedule: Q04DX003 (ip), vehicle: saline); 111 % of control under setting [5].
For `CNS(=O)(=O)c1ccc2c(c1)[nH]c(=S)n2C`, the T/C is 95 % of control under setting [9]; 109 % of control under setting [10]; 100 % of control (dose: 400.0 mg/kg/injection, schedule: Q04DX003 (ip), vehicle: saline with Tween-80).
For `CCN(CC)CCOc1cc(C)ccc1C(C)C`, the T/C is 96 % of control (dose: 25.0 mg/kg/injection, schedule: Q01DX009 (ip), vehicle: saline with Tween-80); 109 % of control under setting [3]; 111 % of control under setting [1]; 109 % of control under setting [4]; 107 % of control under setting [2]; 118 % of control under setting [9].
On to `CC(=O)N=C1C=C(NC(C)=O)C(=O)c2ncccc21`, for which the T/C reads like this: under setting [4], 109 % of control; under setting [9], 122 % of control; under setting [10], 86 % of control.
